Measured values from the NIST ThermoML archive (doi:10.1016/j.fluid.2004.12.007).
Numbers after ± are expanded uncertainties. Blank lines part the entries; values can stand above or below the compound they belong to.

Conditions: Liquid; for mass density: 298.15 K, 101.33 kPa

mass density: 735.4 ± 0.97 kg/m3
vapor or sublimation pressure (326.55 K): 95.96 ± 0.64 kPa
vapor or sublimation pressure (328.35 K): 101.3 ± 0.6 kPa
Compound: COC(C)(C)C [2-methoxy-2-methylpropane]

mass density: 687.72 ± 0.9 kg/m3
vapor or sublimation pressure (370.45 K): 95.96 ± 0.59 kPa
vapor or sublimation pressure (372.45 K): 101.3 ± 0.6 kPa
Compound: CC(C)CC(C)(C)C [2,2,4-trimethylpentane]

mass density: 847.51 ± 1.1 kg/m3
vapor or sublimation pressure (313.75 K): 95.96 ± 0.75 kPa
vapor or sublimation pressure (315.25 K): 101.3 ± 0.8 kPa
Compound: COCOC [dimethoxymethane]

mass density: 718.14 ± 0.95 kg/m3
vapor or sublimation pressure (339.95 K): 95.96 ± 0.8 kPa
vapor or sublimation pressure (341.35 K): 101.3 ± 0.8 kPa
Compound: CC(C)OC(C)C [diisopropyl ether]
